# According to ChEMBL document CHEMBL6078651, “Tyrosinase Inhibitory Properties of Compounds Isolated from Artocarpus integer Roots” (J Nat Prod, 2024):
# Active and inactive are the calls of the source. The calls are words filed in the database; no cut-off is given here.
# Molecular target: Mushroom tyrosinase (Agaricus bisporus) (UniProt O42713+Q00024+C7FF04+C7FF05)
# Assay: Inhibition of mushroom tyrosinase using L-DOPA as substrate at 50 uM preincubated for 10 mins followed by substrate addition measured after 20 mins by spectrophotometry
# Type: protein assay
# Conditions: time 30.0 min
row,inhibition,Compound
1,inactive,COc1cc(O)c2c(=O)c3c(oc2c1)-c1cc(O)c(OC)cc1OC3C=C(C)C (stereo not given)
2,inactive,CC(C)=CCC/C(C)=C/Cc1c2c(c(O)c3c(=O)c(CC=C(C)C)c(-c4cc(C)c(O)cc4O)oc13)C=CC(C)(C)O2
3,inactive,CC(C)=CCc1c2c(c(O)c3c(=O)c4c(oc13)-c1c(O)cc(O)c3c1C(C4)C(C)(C)O3)C=CC(C)(C)O2 (stereo not given)
4,inactive,CC(C)c1cc2c(O)cc(-c3cc4ccc(O)cc4o3)cc2o1
5,inactive,COc1cc2c(c3c1[C@H](C(C)(C)O)CC[C@@H]3c1ccc(O)cc1O)C=CC(C)(C)O2
6,inactive,COc1cc2c(c3oc(-c4cc(O)cc(O)c4)cc13)C=CC(C)(C)O2
7,inactive,C=CC(C)(C)/C=C/c1ccc(O)cc1
8,inactive,CC(C)=CC1Oc2cc(O)ccc2-c2oc3cc(O)cc(O)c3c(=O)c21 (stereo not given)
9,inactive,COc1cc2c(cc1O)-c1oc3cc(O)cc(O)c3c(=O)c1C(C=C(C)C)O2 (stereo not given)
10,inactive,CC(C)=CCC/C(C)=C/Cc1c2c(c(O)c3c(=O)c4c(oc13)-c1c(O)cc(O)c3c1C(C4)C(C)(C)O3)C=CC(C)(C)O2 (stereo not given)
11,inactive,COc1cc(O)c2c(c1)O[C@H](c1cc(OC)c(OC)cc1OC)CC2=O
12,inactive,C=C(C)C1Cc2c(oc3cc(OC)cc(O)c3c2=O)-c2c(O)cc(OC)c(O)c21 (stereo not given)

row,Compound,inhibition
1,C=C(C)c1cc2c(=O)c3c(O)c4c(c(CC=C(C)C)c3oc2c2c1[C@](O)(C(=O)OC)CC2=O)OC(C)(C)C=C4,inactive
2,C=C(C)c1cc2c(=O)c3c(O)c(CC=C(C)C)c(O)c(C/C=C(\C)CCC=C(C)C)c3oc2c2c1[C@](O)(C(=O)OC)CC2=O,inactive
3,C=C(C)c1cc2c(=O)c3c(O)c4c(c(C/C=C(\C)CCC=C(C)C)c3oc2c2c1[C@](O)(C(=O)OC)CC2=O)OC(C)(C)C=C4,inactive
